Measurements published in patent publication US20220233566A1, “NOVEL CARBONATE COMPOUND HAVING PYRROLOPYRIMIDINE SKELETON OR PHARMACEUTICALLY ACCEPTABLE SALT THEREOF” (TAIHO PHARMACEUTICAL CO., LTD., priority 2019, published 2022).
Values belong to the compound of their own block, whether it stands above or below them.

What was measured:
H2122 = test: Growth suppression activity to human tumor cell line (Evaluation 2); format: cell-based; conditions: NCI-H2122, 72 h, Human lung cancer, H2122, 3 days
Description: (§1) Human tumor cell lines different in type were suspended in mediums, seeded in individual wells of a multi-well plate and cultured. On the day after initiation of culture, serially diluted solutions of a compound were added. Culture was carried out for further 3 days. Cells were counted by a CellTiter-Glo (manufactured by Promega KK) in accordance with the protocol recommended by Promega KK. Cell viability was calculated in accordance with the equation shown below and the concentration (IC50 (nM)) of the compound at which 50% of cell growth is inhibited was obtained.
(§2) T: Intensity of light emitted from a well containing a compound
(§3) C: Intensity of light emitted from a well containing no compound

RKO = test: as above; format: cell-based; conditions: 72 h, Human colorectal cancer, 3 days
Description: as §1, §2, §3

H358 = test: as above; format: cell-based; conditions: NCI-H358, 72 h, Human lung cancer, H358, 3 days
Description: as §1, §2, §3

A549 = test: as above; format: cell-based; conditions: A549, 72 h, Human lung cancer, A549, 3 days
Description: as §1, §2, §3

HCC827 = test: as above; format: cell-based; conditions: Homo sapiens, HCC827, 72 h, Human lung cancer, HCC827, 3 days
Description: as §1, §2, §3

SK-BR-3 = test: as above; format: cell-based; conditions: Homo sapiens, SK-BR-3, 72 h, Human breast cancer, SK-BR-3, 3 days
Description: as §1, §2, §3

A431 = test: as above; format: cell-based; conditions: Homo sapiens, A-431, 72 h, Human epidermoid carcinoma, A431, 3 days
Description: as §1, §2, §3

H1650 = test: as above; format: cell-based; conditions: NCI-H1650, 72 h, Human lung cancer, H1650, 3 days
Description: as §1, §2, §3

[1] = Presence of prodrug in mouse and absorbency (plasma AUC after oral administration); format: in vivo; conditions: male, Balb/cA, mouse, 9.9 umol/kg, mice, 9.9 μmol/kg, administered compound itself in plasma, read-out: AUC0-6hr
Description: The dosage amounts of the compounds of Comparative Examples 1 to 5 and Examples 1 to 26 are those (mole/10 mL/kg) shown in Tables. Solutions for administration were prepared with an 0.5% aqueous solutions of HPMC so as to satisfy the dosage amounts.
Note that, the “amount of mole/10 mL/kg” means as follows: for example “10 mmol/10 mL/kg” means that 10 mmol of a test compound per body-weight (1 kg) of a mouse was dispersed or dissolved in a solution (10 mL) for administration. The same applies hereinafter.
The solutions for administration prepared above were orally administered to mice (Balb/cA, male) not fasted each by use of an oral administration sonde.
The mice were anesthetized with isoflurane 0.5, 1, 2, 4 and 6 hours after administration and blood was taken from the facial vein by use of a specific needle (animal lancet) and a heparin-coated hematocrit tube.
The blood sampled was immediately centrifuged (13000 rpm, 2 minutes, 4° C.) to prepare the plasma samples. After proteins were removed from the plasma samples, the concentrations of the test compound in the plasma samples were measured by LC/MS/MS.
The value of “area under the curve” (AUC) of drug concentration in blood versus time was calculated using analysis software such as Phoenix (registered trademark) WinNonlin (registered trademark).
In Table 3, “Comparative Example 1” and “Comparative Example 2” represent the “compound (Br form) of Comparative Example 1” and the “compound (I form) of Comparative Example 2”, respectively. In Table 4, “Comparative Example 6” represents the “compound (C1 form) of Comparative Example 6”.

H520 = test: Growth suppression activity to human tumor cell line (Evaluation 3); format: cell-based; conditions: NCI-H520, 72 h; Human lung cancer, H520, 3 days
Description: as §1, with “of a” for “of the”
as §2, §3

A427 = test: as above; format: cell-based; conditions: A-427, 72 h; Human lung cancer, A427, 3 days
Description: as §1, with “of a” for “of the”
as §2, §3

[2] = system: human brain tumor cell line (U-87 MG); test: Evaluation 1 of antitumor effect and toxicity in mouse (U-87 MG subcutaneous transplant); format: in vivo, BALB/cA Jcl-nu/nu mice
Description: (§4) The day of grouping mice was determined Day 0.
IRs of Comparative Example 2-compound administration group and Example 1-compound administration group on the final day of evaluation (Day 6 in Comparative Example 2 and Day 13 in Example 1) are shown in FIG. 1 and BWC versus elapsed days is shown in FIG. 2.

[3] = system: human hematopoietic organ tumor cell line (MV-4-11); test: Evaluation 3 of antitumor effect and toxicity in mouse (MV-4-11 subcutaneous transplant); format: in vivo
Description: as §4
On the final day of evaluation, the blood cell components (lymphocytes: LYMPH (Lymphocytes)) of individual groups were analyzed.

[4] = system: human brain tumor cell line (U-87 MG); test: Evaluation 2 of antitumor effect and toxicity in mouse (U-87 MG subcutaneous transplant); format: in vivo, BALB/cA Jcl-nu/nu mice; conditions: Day 6, oral every day, Example 5 14.6 mg/kg/day vs Comparative Example 2 12 mg/kg/day
Description: as §4
In order to evaluate “effect versus toxicity”, a ratio based on IR and BWC (effect index) was obtained, and Example 5-compound administration group was compared to Comparative Example 2-compound administration group.
Effect indexes of Comparative Example 2-Compound (I form) and Example 5-compound administration groups on Day 6 are shown in FIG. 3.

[5] = U-87 MG, oral every day from Day 1, Example 1 15.4 mg/kg/day
[6] = MV-4-11, oral every day from Day 1, Example 1 10.8 mg/kg/day

IC50 (H2122): 58 nM
IC50 (RKO): 135 nM
IC50 (H358): 273 nM
IC50 (A549): 54 nM
IC50 (HCC827): 795 nM
IC50 (SK-BR-3): 88 nM
IC50 (A431): 124 nM
IC50 (H1650): 31 nM
AUC(0-t) [1]: 2.07 µM·h
SMILES: Nc1ncnc2c1c(Cl)cn2[C@@H]1O[C@H](CO)[C@@H](O)[C@@H]1F [Comparative Example 6, (2R,3R,4S,5R)-5-(4-amino-5-chloro-7H-pyrrolo[2,3-d]pyrimidin-7-yl)-4-fluoro-2-(hydroxymethyl) tetrahydrofuran-3-ol]

IC50 (H520): 465 nM
IC50 (A427): 1140 nM
SMILES: Nc1ncnc2c1c(I)cn2[C@@H]1O[C@H](CO)C(O)C1(F)F (stereo partly drawn) [Comparative Example 7, (2R,3R,4S,5R)-5-(4-amino-5-iodo-7H-pyrrolo[2,3-d]pyrimidin-7-yl)-4,4-difluoro-2-(hydroxymethyl) tetrahydrofuran-3-ol, reference compound]

SMILES: Nc1ncnc2c1c(I)cn2[C@@H]1O[C@H](CO)[C@@H](OC(=O)OC2CCCC2)[C@@H]1F [Example 1, (2R,3R,4S,5R)-5-(4-amino-5-iodo-7H-pyrrolo[2,3-d]pyrimidin-7-yl)-4-fluoro-2-(hydroxymethyl)tetrahydrofuran-3-yl cyclopentyl carbonate]
antitumor effect (tumor-growth inhibition rate, IR) [2, 5]: high antitumor effect
effect on body weight (BWC) [2, 5]: mild
continuation of administration compared to Comparative Example 2-compound administration group ([2]; U-87 MG, oral every day, Example 1 15.4 mg/kg/day vs Comparative Example 2 12 mg/kg/day): longer
final day of evaluation (administration continued as long as weight loss was acceptable, until 20% or more) ([2]; oral every day, Comparative Example 2 12 mg/kg/day, Example 1 15.4 mg/kg/day): 13 days
antitumor effect (RTV) [3, 6]: remarkable antitumor effect (tumor regression was confirmed)
effect on body weight and hematological toxicity (BWC, lymphocytes T/C %) [3, 6]: low
continuation of administration compared to Comparative Example 2-compound administration group ([3]; MV-4-11, oral every day, Example 1 10.8 mg/kg/day vs Comparative Example 2 12 mg/kg/day): longer

SMILES: CC(C)OC(=O)O[C@H]1[C@H](F)[C@H](n2cc(I)c3c(N)ncnc32)O[C@@H]1CO [Example 5, (2R,3R,4S,5R)-5-(4-Amino-5-iodo-7H-pyrrolo[2,3-d]pyrimidin-7-yl)-4-fluoro-2-(hydroxymethyl)tetrahydrofuran-3-yl isopropyl carbonate]
effect versus toxicity (effect index, ratio based on IR and BWC) [4]: high compared to that of Comparative Example 2-compound administration group
